Results reported in patent US11130748B2, “Compounds” (MISSION THERAPEUTICS LIMITED, priority 2015, dated 2021).

Molecular target: USP30 (Homo sapiens (Human), UniProt Q70CQ3)
Assay: USP30 biochemical IC50 assay
Conditions: not given
Experimental: USP30 Biochemical IC50 Assay
Dilution plates were prepared at 21 times the final concentration (2100 μM for a final concentration of 100 μM) in 50% DMSO in a 96-well polypropylene V-bottom plate (Greiner #651201). A typical 8-point dilution series to be 100, 30, 10, 3, 1, 0.3, 0.1, 0.03 μM final. Reactions were performed in duplicate in black 384 well plates (small volume, Greiner 784076) in a final reaction volume of 21 μl. Either 1 μl of 50% DMSO or diluted compound was added to the plate. USP30 was diluted in reaction buffer (40 mM Tris, pH 7.5, 0.005% Tween 20, 0.5 mg/ml BSA, 5 mM beta-mercaptoethanol) to the equivalent of 0.05 μl/well and 10 μl of diluted USP30 was added to the compound. Enzyme and compound were incubated for 30 min at room temp. Reactions were initiated by the addition of 50 nM of TAMRA labelled peptide linked to ubiquitin via an iso-peptide bond as fluorescence polarisation substrate. Reactions were read immediately after addition of substrate and following a 2 hr incubation at room temperature. Readings were performed on a Pherastar Plus (BMG Labtech). λ Excitation 540 nm; λ Emission 590 nm.

Sequence of USP30 (Q70CQ3 57-517): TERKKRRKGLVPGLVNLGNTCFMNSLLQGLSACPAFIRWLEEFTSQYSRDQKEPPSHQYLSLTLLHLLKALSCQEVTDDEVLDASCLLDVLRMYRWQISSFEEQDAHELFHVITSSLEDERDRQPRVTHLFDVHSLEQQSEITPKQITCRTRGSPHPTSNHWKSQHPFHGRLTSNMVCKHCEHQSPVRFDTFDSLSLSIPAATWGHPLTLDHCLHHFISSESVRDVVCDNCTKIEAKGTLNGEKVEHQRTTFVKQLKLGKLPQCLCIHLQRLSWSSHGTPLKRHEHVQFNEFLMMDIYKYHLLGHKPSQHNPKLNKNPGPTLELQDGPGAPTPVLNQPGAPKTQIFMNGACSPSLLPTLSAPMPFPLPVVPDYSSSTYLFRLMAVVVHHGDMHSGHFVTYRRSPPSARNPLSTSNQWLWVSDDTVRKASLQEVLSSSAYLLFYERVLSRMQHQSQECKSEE

**Q.** With N#CN1CCC(CNC(=O)c2nn(Cc3ccc(Cl)cc3Cl)c3ccccc23)C1 (stereo not shown) [Example 28, N-((1-Cyanopyrrolidin-3-yl)methyl)-1-(2,4-dichlorobenzyl)-1H-indazole-3-carboxamide] as the molecule, how does the IC50 read?
**A.** < 100 nM

**Q.** How did the IC50 turn out when N#CN1CCC(CNC(=O)c2nn(Cc3ccccc3)c3ccccc23)C1 (stereo not shown) [Example 29, 1-Benzyl-N-((1-cyanopyrrolidin-3-yl)methyl)-1H-indazole-3-carboxamide] was run?
**A.** 1000 to 10000 nM

Same assay, conditions: fluorescence polarisation, TAMRA labelled peptide linked to ubiquitin; 30 min pre-incubation, 2 hr read; read-out: IC50 range

**Q.** With N#CN1CCC(CNc2ccc3ccccc3n2)C1 (stereo not shown) [Example 1, 3-((Quinolin-2-ylamino)methyl)pyrrolidine-1-carbonitrile] as the molecule, how does the IC50 read?
**A.** 1000 to 10000 nM

**Q.** With N#CN1CCC(CNc2nc3ccc(F)cc3s2)C1 (stereo not shown) [Example 2, 3-(((6-Fluorobenzo[d]thiazol-2-yl)amino)methyl)pyrrolidine-1-carbonitrile] as the molecule, how does the IC50 read?
**A.** 1000 to 10000 nM

**Q.** With N#CN1CCC(CNc2nccc3ccccc23)C1 (stereo not shown) [Example 3, 3-((Isoquinolin-1-ylamino)methyl)pyrrolidine-1-carbonitrile] as the molecule, how does the IC50 read?
**A.** 1000 to 10000 nM

**Q.** With N#CN1CCC(CNc2ncccc2-c2ccccc2)C1 (stereo not shown) [Example 4, 3-(((3-Phenylpyridin-2-yl)amino)methyl)pyrrolidine-1-carbonitrile] as the molecule, how does the IC50 read?
**A.** 10000 to 100000 nM

**Q.** N#CN1CCC(CNc2cc(-c3ccccc3)ccn2)C1 (stereo not shown) [Example 5, 3-(((4-Phenylpyridin-2-yl)amino)methyl)pyrrolidine-1-carbonitrile] was tested. Which IC50 did it give?
**A.** 100 to 1000 nM

**Q.** N#CN1CCC(CNc2ccc(-c3ccccc3)cn2)C1 (stereo not shown) [Example 6, 3-(((5-Phenylpyridin-2-yl)amino)methyl)pyrrolidine-1-carbonitrile] was tested. Which IC50 did it give?
**A.** 1000 to 10000 nM

**Q.** How did the IC50 turn out when N#CN1CCC(CNc2cccc(-c3ccccc3)n2)C1 (stereo not shown) [Example 7, 3-(((6-Phenylpyridin-2-yl)amino)methyl)pyrrolidine-1-carbonitrile] was run?
**A.** 1000 to 10000 nM

**Q.** N#CN1CCC(CNc2nccc(-c3ccccc3)n2)C1 (stereo not shown) [Example 8, 3-(((4-Phenylpyrimidin-2-yl)amino)methyl)pyrrolidine-1-carbonitrile] was tested. Which IC50 did it give?
**A.** 1000 to 10000 nM

**Q.** N#CN1CC[C@H](CNc2ncc(-c3ccccc3)s2)C1 [Example 9, (R)-3-(((5-Phenylthiazol-2-yl)amino)methyl)pyrrolidine-1-carbonitrile] was tested. Which IC50 did it give?
**A.** < 100 nM

**Q.** For N#CN1CC[C@@H](CNc2ncc(-c3ccccc3)s2)C1 [Example 10, (S)-3-(((5-Phenylthiazol-2-yl)amino)methyl)pyrrolidine-1-carbonitrile], which IC50 is on record?
**A.** 100 to 1000 nM

**Q.** With N#CN1CCC(CNc2nc3ccc(-c4cn[nH]c4)cc3s2)C1 (stereo not shown) [Example 11, 3-(((6-(1H-Pyrazol-4-yl)benzo[d]thiazol-2-yl)amino)methyl)pyrrolidine-1-carbonitrile] as the molecule, how does the IC50 read?
**A.** 100 to 1000 nM

**Q.** How did the IC50 turn out when N#CN1CC[C@H](CNc2ncc3ccc(-c4cn[nH]c4)cc3n2)C1 [Example 12, (R)-3-(((7-(1H-Pyrazol-4-yl)quinazolin-2-yl)amino)methyl)pyrrolidine-1-carbonitrile] was run?
**A.** 1000 to 10000 nM

**Q.** Which IC50 does the source give for Cc1nn(C)cc1-c1cccc(NCC2CCN(C#N)C2)c1 (stereo not shown) [Example 13, 3-(((3-(1,3-dimethyl-1H-pyrazol-4-yl)phenyl)amino)methyl)pyrrolidine-1-carbonitrile] here?
**A.** 1000 to 10000 nM

**Q.** With Cc1nn(C)cc1-c1ccc(NCC2CCN(C#N)C2)cc1 (stereo not shown) [Example 14, 3-(((4-(1,3-Dimethyl-1H-pyrazol-4-yl)phenyl)amino)methyl) pyrrolidine-1-carbonitrile] as the molecule, how does the IC50 read?
**A.** 1000 to 10000 nM

**Q.** Which IC50 does the source give for Cc1nn(C)cc1-c1ccc(NCC2CCN(C#N)C2)c(F)c1 (stereo not shown) [Example 15, 3-(((4-(1,3-Dimethyl-1H-pyrazol-4-yl)-2-fluorophenyl)amino)methyl)pyrrolidine-1-carbonitrile] here?
**A.** 1000 to 10000 nM

**Q.** For N#Cc1ccc2cnc(NCC3CCN(C#N)C3)cc2c1 (stereo not shown) [Example 16, 3-(((1-Cyano-pyrrolidin-3-yl)methyl)amino) isoquinoline-6-carbonitrile], which IC50 is on record?
**A.** 1000 to 10000 nM

**Q.** With CNC(=O)c1ccc2cnc(NCC3CCN(C#N)C3)cc2c1 (stereo not shown) [Example 17, 3-(((1-Cyano-pyrrolidin-3-yl)methyl)amino)-N-methylisoquinoline-6-carboxamide] as the molecule, how does the IC50 read?
**A.** 1000 to 10000 nM

**Q.** Which IC50 does the source give for N#CN1CCC(CNc2ccnc(N3Cc4ccccc4C3)c2)C1 (stereo not shown) [Example 18, 3-(((2-(isoindolin-2-yl)pyridin-4-yl)amino)methyl)pyrrolidine-1-carbonitrile] here?
**A.** 100 to 1000 nM

**Q.** Which IC50 does the source give for N#CN1CC[C@@H](CNc2nccc(-c3ccccc3)n2)C1 [Example 19, (S)-3-(((4-Phenylpyrimidin-2-yl)amino)methyl)pyrrolidine-1-carbonitrile] here?
**A.** 1000 to 10000 nM

**Q.** How did the IC50 turn out when CN1C(=O)COc2ccc(C(=O)NCC3CCN(C#N)C3)cc21 (stereo not shown) [Example 23, N-((1-Cyanopyrrolidin-3-yl)methyl)-4-methyl-3-oxo-3,4-dihydro-2H-benzo[b][1,4]oxazine-6-carboxamide] was run?
**A.** 100 to 1000 nM

**Q.** With N#CN1CCC(CNC(=O)c2ccc(-c3ccncc3)cc2)C1 (stereo not shown) [Example 24, N-((1-Cyanopyrrolidin-3-yl)methyl)-4-(pyridin-4-yl)benzamide] as the molecule, how does the IC50 read?
**A.** 100 to 1000 nM

**Q.** With Cc1ccccc1-c1cc(C(=O)NCC2CCN(C#N)C2)[nH]n1 (stereo not shown) [Example 25, N-((1-Cyanopyrrolidin-3-yl)methyl)-3-(o-tolyl)-1H-pyrazole-5-carboxamide] as the molecule, how does the IC50 read?
**A.** 100 to 1000 nM

**Q.** For N#CN1CCC(CNC(=O)c2cc(N3CCCC3)ccn2)C1 (stereo not shown) [Example 27, N-((1-Cyanopyrrolidin-3-yl)methyl)-4-(pyrrolidin-1-yl)picolinamide], which IC50 is on record?
**A.** 100 to 1000 nM

**Q.** N#CN1CCC(CNC(=O)c2ccc(S(=O)(=O)Nc3ccccc3)cc2)C1 (stereo not shown) [Example 30, N-((1-Cyanopyrrolidin-3-yl)methyl)-4-(N-phenylsulfamoyl)benzamide] was tested. Which IC50 did it give?
**A.** 100 to 1000 nM

**Q.** With COc1ccc(/C=C/C(=O)NCC2CCN(C#N)C2)c(F)c1 (stereo not shown) [Example 32, (E)-N-((1-Cyanopyrrolidin-3-yl)methyl)-3-(2-fluoro-4-methoxyphenyl)acrylamide] as the molecule, how does the IC50 read?
**A.** 100 to 1000 nM

**Q.** How did the IC50 turn out when N#CN1CCC(CNC(=O)c2cncc(-c3ccc(F)cc3)c2)C1 (stereo not shown) [Example 33, N-((1-Cyanopyrrolidin-3-yl)methyl)-5-(4-fluorophenyl)nicotinamide] was run?
**A.** 100 to 1000 nM

**Q.** Which IC50 does the source give for N#CN1CC[C@@H](CNC(=O)c2ccc3c(c2)NC(=O)CO3)C1 [Example 34, (S)—N-((1-Cyanopyrrolidin-3-yl)methyl)-3-oxo-3,4-dihydro-2H-benzo[b][1,4]oxazine-6-carboxamide] here?
**A.** 1000 to 10000 nM

**Q.** How did the IC50 turn out when N#CN1CC[C@H](CNC(=O)c2cn3cc(Cl)ccc3n2)C1 [Example 35, (R)-6-Chloro-N-((1-cyanopyrrolidin-3-yl)methyl)imidazo[1,2-a]pyridine-2-carboxamide] was run?
**A.** 1000 to 10000 nM

**Q.** N#CN1CC[C@H](CNC(=O)c2cc3ccccn3n2)C1 [Example 36, (R)—N-((1-Cyanopyrrolidin-3-yl)methyl)pyrazolo[1,5-a]pyridine-2-carboxamide] was tested. Which IC50 did it give?
**A.** 1000 to 10000 nM

**Q.** CN(CC1CCN(C#N)C1)C(=O)Cc1ccc(-c2ccccc2)cc1 (stereo not shown) [Example 37, 2-([1,1′-biphenyl]-4-yl)-N-((1-cyanopyrrolidin-3-yl)methyl)-N-methylacetamide] was tested. Which IC50 did it give?
**A.** 100 to 1000 nM

**Q.** For Cn1cc(-c2ccc3nc(C(=O)NCC4CCN(C#N)C4)cn3c2)cn1 (stereo not shown) [Example 39, N-((1-Cyanopyrrolidin-3-yl)methyl)-6-(1-methyl-1H-pyrazol-4-yl)imidazo[1,2-a]pyridine-2-carboxamide], which IC50 is on record?
**A.** 1000 to 10000 nM

**Q.** Which IC50 does the source give for Cc1cc(C(=O)NCC2CCN(C#N)C2)nn1Cc1ccccc1 (stereo not shown) [Example 40, 1-Benzyl-N-((1-cyanopyrrolidin-3-yl)methyl)-5-methyl-1H-pyrazole-3-carboxamide] here?
**A.** 1000 to 10000 nM

**Q.** Which IC50 does the source give for N#CN1CCC(CNC(=O)Nc2cccc(Cl)c2)C1 (stereo not shown) [Example 41, 1-(3-Chlorophenyl)-3-((1-cyanopyrrolidin-3-yl)methyl)urea] here?
**A.** 100 to 1000 nM

**Q.** With Cc1ccc(F)c(NC(=O)NCC2CCN(C#N)C2)c1 (stereo not shown) [Example 42, 1-((1-Cyanopyrrolidin-3-yl)methyl)-3-(2-fluoro-5-methylphenyl)urea] as the molecule, how does the IC50 read?
**A.** 100 to 1000 nM

**Q.** With N#CN1CCC(CNC(=O)Nc2cccc(Cc3ccccc3)c2)C1 (stereo not shown) [Example 43, 1-(3-Benzylphenyl)-3-((1-cyanopyrrolidin-3-yl)methyl)urea] as the molecule, how does the IC50 read?
**A.** 100 to 1000 nM

**Q.** How did the IC50 turn out when N#CN1CCC(CNC(=O)Nc2ccc(Cl)cc2Cl)C1 (stereo not shown) [Example 44, 1-((1-Cyanopyrrolidin-3-yl)methyl)-3-(2,4-dichlorophenyl)urea] was run?
**A.** 100 to 1000 nM

**Q.** How did the IC50 turn out when N#CN1CCC(CNC(=O)Nc2ccc(C(F)(F)F)cc2)C1 (stereo not shown) [Example 45, 1-((1-Cyanopyrrolidin-3-yl)methyl)-3-(4-(trifluoromethyl)phenyl)urea] was run?
**A.** 100 to 1000 nM

**Q.** How did the IC50 turn out when Cc1nc(-c2cccc(S(=O)(=O)N(C)CC3CCN(C#N)C3)c2)cs1 (stereo not shown) [Example 46, N-((1-Cyanopyrrolidin-3-yl)methyl)-N-methyl-3-(2-methylthiazol-4-yl)-benzenesulfonamide] was run?
**A.** 100 to 1000 nM

**Q.** For CN(CC1CCN(C#N)C1)S(=O)(=O)c1ccc(Oc2ccc(C(F)(F)F)cn2)cc1 (stereo not shown) [Example 47, N-((1-Cyanopyrrolidin-3-yl)methyl)-N-methyl-4-((5-(trifluoromethyl)pyridin-2-yl)oxy)benzenesulfonamide], which IC50 is on record?
**A.** 100 to 1000 nM

**Q.** Cc1oncc1-c1ccc2nc(NC(C)C3CCN(C#N)C3)sc2c1 (stereo not shown) [Example 48, 3-(1-((6-(5-Methylisoxazol-4-yl)benzo[d]thiazol-2-yl)amino)ethyl)pyrrolidine-1-carbonitrile] was tested. Which IC50 did it give?
**A.** 100 to 1000 nM

**Q.** For CC(Nc1nc2ccc(-c3cn[nH]c3)cc2s1)C1CCN(C#N)C1 (stereo not shown) [Example 49, 3-(1-((6-(1H-Pyrazol-4-yl)benzo[d]thiazol-2-yl)amino)ethyl)pyrrolidine-1-carbonitrile], which IC50 is on record?
**A.** 100 to 1000 nM
